The target in experiment [1] is T1, 5-hydroxytryptamine receptor 2C (Homo sapiens, UniProt P28335).
T1 sequence (P28335 whole entry): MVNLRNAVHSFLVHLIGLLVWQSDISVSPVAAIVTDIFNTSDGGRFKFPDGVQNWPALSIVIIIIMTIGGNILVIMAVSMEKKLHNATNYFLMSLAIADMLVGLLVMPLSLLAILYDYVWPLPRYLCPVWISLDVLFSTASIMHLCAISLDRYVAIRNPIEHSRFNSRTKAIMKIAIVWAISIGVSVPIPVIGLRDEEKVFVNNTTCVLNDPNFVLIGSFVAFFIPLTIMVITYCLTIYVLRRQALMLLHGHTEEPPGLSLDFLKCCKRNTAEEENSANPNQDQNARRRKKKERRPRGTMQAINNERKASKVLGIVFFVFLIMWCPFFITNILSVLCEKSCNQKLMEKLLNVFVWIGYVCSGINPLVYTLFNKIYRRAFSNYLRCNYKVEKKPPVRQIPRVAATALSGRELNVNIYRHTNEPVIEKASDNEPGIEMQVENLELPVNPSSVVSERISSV
Put plainly: Displacement of [3H]Mesulergine from 5-HT2C receptor (unknown origin) assessed as inhibition constant incubated for 90 mins by MicroBeta scintillation counting method.

The species entered for experiment [2] is Homo sapiens. Description: Selectivity ratio of Ki for 5-HT2B receptor (unknown origin) to Ki for 5-HT2C receptor (unknown origin).
For experiment [3], the species on record is Homo sapiens. Description: Selectivity ratio of Ki for 5-HT2A receptor (unknown origin) to Ki for 5-HT2B receptor (unknown origin).
Experiment [4] addresses Serotonin 2 receptors; 5-HT2a & 5-HT2c (Homo sapiens) (UniProt P28223+P28335). Description: Selectivity ratio of Ki for 5-HT2A receptor (unknown origin) to Ki for 5-HT2C receptor (unknown origin). In kind it is protein assay.
In experiment [5] the target is T2, 5-hydroxytryptamine receptor 2B (Homo sapiens, UniProt P41595). Description: Displacement of [3H]LSD from 5-HT2B receptor (unknown origin) assessed as inhibition constant incubated for 90 mins by MicroBeta scintillation counting method.
Experiment [6] concerns the target T3, 5-hydroxytryptamine receptor 2A (Homo sapiens, UniProt P28223). Put plainly: Displacement of [3H]Ketanserin from 5-HT2A receptor (unknown origin) assessed as inhibition constant incubated for 90 mins by MicroBeta scintillation counting method.
The target in experiment [7] is T2, 5-hydroxytryptamine receptor 2B. Description: Antagonist activity at 5-HT2B receptor (unknown origin) incubated for 60 mins followed by 10 mins incubation in dark at room temperature by FLIPR method. In kind it is functional.
Experiment [8] addresses T1, 5-hydroxytryptamine receptor 2C. Description: Antagonist activity at 5-HT2C receptor (unknown origin) incubated for 60 mins followed by 10 mins incubation in dark at room temperature by FLIPR method. In kind it is functional.
The target in experiment [9] is T3, 5-hydroxytryptamine receptor 2A. Description: Antagonist activity at 5-HT2A receptor (unknown origin) incubated for 60 mins followed by 10 mins incubation in dark at room temperature by FLIPR method. In kind it is functional.

Each structure is given as a SMILES string.

Sequence of Serotonin 2 receptors; 5-HT2a & 5-HT2c (Homo sapiens) (P28223 whole entry, looked up, one chain of several): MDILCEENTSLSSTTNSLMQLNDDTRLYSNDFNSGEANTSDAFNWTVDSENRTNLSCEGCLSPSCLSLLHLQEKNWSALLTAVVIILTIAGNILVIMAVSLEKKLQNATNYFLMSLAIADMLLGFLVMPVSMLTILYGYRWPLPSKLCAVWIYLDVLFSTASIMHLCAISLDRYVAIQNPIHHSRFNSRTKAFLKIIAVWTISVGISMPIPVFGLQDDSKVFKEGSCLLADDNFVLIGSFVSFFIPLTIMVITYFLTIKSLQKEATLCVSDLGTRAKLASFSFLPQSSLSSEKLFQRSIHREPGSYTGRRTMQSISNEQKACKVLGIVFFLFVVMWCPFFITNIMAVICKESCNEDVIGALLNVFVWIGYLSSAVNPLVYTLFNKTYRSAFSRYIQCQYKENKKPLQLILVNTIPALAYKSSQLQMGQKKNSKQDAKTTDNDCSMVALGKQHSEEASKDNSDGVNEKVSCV
T3 sequence (P28223 whole entry): as the sequence (P28223 whole entry, looked up, one chain of several) above
T2 sequence (P41595 whole entry): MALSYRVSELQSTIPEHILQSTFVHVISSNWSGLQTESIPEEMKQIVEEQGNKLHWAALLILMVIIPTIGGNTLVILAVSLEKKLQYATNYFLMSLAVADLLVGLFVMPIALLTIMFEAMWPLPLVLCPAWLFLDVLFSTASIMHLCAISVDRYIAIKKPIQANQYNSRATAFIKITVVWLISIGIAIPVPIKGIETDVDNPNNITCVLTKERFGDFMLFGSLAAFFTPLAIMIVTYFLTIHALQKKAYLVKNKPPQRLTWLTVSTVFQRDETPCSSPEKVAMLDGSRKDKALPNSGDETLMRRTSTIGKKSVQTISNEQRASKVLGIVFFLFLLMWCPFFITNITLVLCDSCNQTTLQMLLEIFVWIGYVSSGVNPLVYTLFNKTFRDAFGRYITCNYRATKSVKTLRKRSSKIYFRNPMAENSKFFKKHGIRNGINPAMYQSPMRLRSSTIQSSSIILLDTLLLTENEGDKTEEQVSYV

Regarding `COc1cc2c(cc1OC)-c1c(OC)c(OC3CCCCC3)cc3c1[C@H](C2)N(C)CC3`, the inhibition constant (Ki) in experiment [1] came to 113 nM; in experiment [5], 92 nM; in experiment [6], 534 nM. Moreover, the Ratio Ki in experiment [2] was found to be 0.8; in experiment [3], 5.8; in experiment [4], 4.7.
For the compound `CCCCOc1cc2c3c(c1OC)-c1cc(OC)c(OC)cc1C[C@@H]3N(C)CC2`, the Ki stood at 47 nM in experiment [1], 15 nM in [5] and 187 nM in experiment [6]. In addition, the Ratio Ki is 0.3 in experiment [2], 12.5 in experiment [3] and 4 in [4].
For the compound `CCCCC(C)Oc1cc2c3c(c1OC)-c1cc(OC)c(OC)cc1C[C@@H]3N(C)CC2` (some centres undefined), the values for the inhibitory constant (Ki) in experiment [1], in experiment [5] and in experiment [6] were 72 nM, 82 nM and 155 nM, respectively. In addition, the figures for the Ratio Ki in experiment [2], in experiment [3] and in experiment [4] were 1, 1.9 and 2.2, respectively.
Regarding `COc1cc2c(cc1OC)-c1c(OC)c(OCC3CC3)cc3c1[C@H](C2)N(C)CC3`, the Ki in experiment [1] amounted to 104 nM; in [5], 40 nM; in experiment [6] it was 238 nM. Besides, the results for the Ratio Ki in [2], in experiment [3] and in experiment [4] were 0.4, 6 and 2.3, respectively.
Take `CCCCCCOc1cc2c3c(c1OC)-c1cc(OC)c(OC)cc1C[C@@H]3N(C)CC2`: the Ki in [1] worked out at 82 nM; in experiment [5], 105 nM; in experiment [6] it was 213 nM. In addition, the values for the Ratio Ki in [2], in [3] and in experiment [4] were 1, 2 and 2.6, respectively.
Turning to `CCCCCOc1cc2c3c(c1OC)-c1cc(OC)c(OC)cc1C[C@@H]3N(C)CC2`, the Ki in experiment [1] was 40 nM; in experiment [5] it was 47 nM; in [6], 138 nM. Besides, the Ratio Ki in experiment [2] came out at 1; in experiment [3], 2.9; in [4], 3.5.
For the compound `COc1cc2c(cc1OC)-c1c(OC)c(OC(C)C)cc3c1[C@H](C2)N(C)CC3`, the results for the Ki in [1], in experiment [5] and in [6] were 190 nM, 156 nM and 587 nM, respectively. In addition, the Ratio Ki in experiment [2] is 0.8; in experiment [3], 3.8; in [4], 3.1.
In the case of `CCOc1cc2c3c(c1OC)-c1cc(OC)c(OC)cc1C[C@@H]3N(C)CC2`, the Ki is 340 nM in experiment [1], 153 nM in experiment [5] and 512 nM in experiment [6]. Besides, the values for the Ratio Ki in experiment [2], in experiment [3] and in experiment [4] were 0.5, 3.3 and 1.5, respectively.
Take `C=CCOc1cc2c3c(c1OC)-c1cc(OC)c(OC)cc1C[C@@H]3N(C)CC2`: the values for the Ki in experiment [1], in [5] and in [6] were 50 nM, 16 nM and 101 nM, respectively. Further, the Ratio Ki in [2] stood at 0.3; in experiment [3], 6.3; in experiment [4] it was 2.
Consider `CCCC(C)Oc1cc2c3c(c1OC)-c1cc(OC)c(OC)cc1C[C@@H]3N(C)CC2` (some centres undefined), for which the Ki in experiment [1] was found to be 37 nM; in [5], 25 nM; in [6], 244 nM. Moreover, the Ratio Ki came out at 0.7 in experiment [2], 9.8 in experiment [3] and 6.6 in [4].
For `COc1cc2c(cc1OC)-c1c(OC)c(OCc3ccc(Br)cc3)cc3c1[C@H](C2)N(C)CC3`, the values for the Ki in experiment [1], in [5] and in experiment [6] were 23 nM, 359 nM and 20 nM, respectively. In addition, the figures for the Ratio Ki in experiment [2], in experiment [3] and in experiment [4] were 16, 0.06 and 0.9, respectively. Also, the IC50 is 3000 nM in [7], 436 nM in experiment [8] and 162 nM in experiment [9].
On to `COc1cc2c(cc1OC1CCCCC1)C[C@H]1c3c(cc(OC)c(OC)c3-2)CCN1C`, for which the inhibition constant Ki was 614 nM in [1] and 53 nM in experiment [5]. The Ratio Ki was found to be 0.1 in experiment [2], 10.8 in experiment [3] and 0.9 in experiment [4].
In the case of `COc1cc2c(cc1OC)-c1c(OC)c(OCc3ccccc3)cc3c1[C@H](C2)N(C)CC3`, the Ki in experiment [1] was 4 nM; in experiment [5], 48 nM; in experiment [6], 22 nM. In addition, the values for the Ratio Ki in experiment [2], in experiment [3] and in [4] were 12, 0.5 and 5.5, respectively. For the same compound, the IC50 came out at 1230 nM in experiment [7], 161 nM in experiment [8] and 137 nM in [9].
`CCC(C)Oc1cc2c3c(c1OC)-c1cc(OC)c(OC)cc1C[C@@H]3N(C)CC2` (some centres undefined): the results for the inhibition constant Ki in experiment [1], in experiment [5] and in experiment [6] were 94 nM, 96 nM and 293 nM, respectively. The Ratio Ki in experiment [2] came out at 1; in experiment [3], 3.1; in experiment [4] it was 3.1.
For the compound `COc1cc2c(cc1OCc1ccc(Br)cc1)C[C@H]1c3c(cc(OC)c(OC)c3-2)CCN1C`, the results for the Ki in experiment [1] and in [5] were 281 nM and 42 nM, respectively. For the same compound, the figures for the Ratio Ki in experiment [2], in experiment [3] and in [4] were 0.1, 10 and 1.5, respectively.

The values are drawn from ChEMBL document CHEMBL5137112, “Semisynthetic Transformations on (+)-Boldine Reveal a 5-HT2A/2CR Antagonist” (J Nat Prod, 2022).
